Laboratory results published in ChEMBL document CHEMBL4270498, “Targeting Eph/ephrin system in cancer therapy” (Eur J Med Chem, 2017).
pIC50, pKd, pKi: −log10 of the molar value. Blank lines part the entries; values can stand above or below the compound they belong to.

Experiments:
[1] = Half life in mouse at 30 mg/kg, iv; assay type: ADME, organism-based; conditions: in vivo
Ephrin type-A receptor 2 [2] = molecular target: T1, Ephrin type-A receptor 2 (Mus musculus, UniProt Q03145); assay: Displacement of biotinylated ephrinA1-Fc from recombinant mouse EphA2 Fc chimera protein by ELISA
T1 sequence (Q03145 whole entry): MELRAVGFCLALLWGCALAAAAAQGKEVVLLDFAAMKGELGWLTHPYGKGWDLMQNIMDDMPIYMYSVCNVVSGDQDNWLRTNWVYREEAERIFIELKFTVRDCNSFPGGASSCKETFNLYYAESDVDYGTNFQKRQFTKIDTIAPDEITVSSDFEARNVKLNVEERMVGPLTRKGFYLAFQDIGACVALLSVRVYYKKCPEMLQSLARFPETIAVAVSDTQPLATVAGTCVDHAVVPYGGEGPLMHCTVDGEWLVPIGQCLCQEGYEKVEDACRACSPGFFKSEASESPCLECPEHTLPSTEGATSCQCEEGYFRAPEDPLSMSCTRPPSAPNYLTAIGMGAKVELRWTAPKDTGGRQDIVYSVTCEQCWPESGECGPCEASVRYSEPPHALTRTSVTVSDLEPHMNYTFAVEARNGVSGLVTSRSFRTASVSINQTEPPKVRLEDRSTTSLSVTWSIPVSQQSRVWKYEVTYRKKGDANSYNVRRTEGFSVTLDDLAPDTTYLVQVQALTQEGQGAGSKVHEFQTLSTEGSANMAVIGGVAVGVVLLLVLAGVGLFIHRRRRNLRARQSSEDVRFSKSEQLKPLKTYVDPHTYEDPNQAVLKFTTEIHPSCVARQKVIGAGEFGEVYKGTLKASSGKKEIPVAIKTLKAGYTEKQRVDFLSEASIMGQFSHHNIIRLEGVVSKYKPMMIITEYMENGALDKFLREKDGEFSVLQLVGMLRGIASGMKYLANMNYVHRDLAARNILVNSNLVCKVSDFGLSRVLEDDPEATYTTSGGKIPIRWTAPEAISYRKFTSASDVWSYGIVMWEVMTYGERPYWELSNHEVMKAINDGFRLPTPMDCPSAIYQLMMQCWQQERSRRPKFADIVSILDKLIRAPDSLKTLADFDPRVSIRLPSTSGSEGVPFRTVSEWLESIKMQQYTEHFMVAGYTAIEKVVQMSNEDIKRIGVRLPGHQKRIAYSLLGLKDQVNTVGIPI

Ephrin type-A receptor 2 [3] = molecular target: Ephrin type-A receptor 2 (Homo sapiens, UniProt P29317); assay: Binding affinity to EphA2 (unknown origin)
Sequence of Ephrin type-A receptor 2 (Homo sapiens, UniProt P29317) (P29317 whole entry, the tested form may be a part): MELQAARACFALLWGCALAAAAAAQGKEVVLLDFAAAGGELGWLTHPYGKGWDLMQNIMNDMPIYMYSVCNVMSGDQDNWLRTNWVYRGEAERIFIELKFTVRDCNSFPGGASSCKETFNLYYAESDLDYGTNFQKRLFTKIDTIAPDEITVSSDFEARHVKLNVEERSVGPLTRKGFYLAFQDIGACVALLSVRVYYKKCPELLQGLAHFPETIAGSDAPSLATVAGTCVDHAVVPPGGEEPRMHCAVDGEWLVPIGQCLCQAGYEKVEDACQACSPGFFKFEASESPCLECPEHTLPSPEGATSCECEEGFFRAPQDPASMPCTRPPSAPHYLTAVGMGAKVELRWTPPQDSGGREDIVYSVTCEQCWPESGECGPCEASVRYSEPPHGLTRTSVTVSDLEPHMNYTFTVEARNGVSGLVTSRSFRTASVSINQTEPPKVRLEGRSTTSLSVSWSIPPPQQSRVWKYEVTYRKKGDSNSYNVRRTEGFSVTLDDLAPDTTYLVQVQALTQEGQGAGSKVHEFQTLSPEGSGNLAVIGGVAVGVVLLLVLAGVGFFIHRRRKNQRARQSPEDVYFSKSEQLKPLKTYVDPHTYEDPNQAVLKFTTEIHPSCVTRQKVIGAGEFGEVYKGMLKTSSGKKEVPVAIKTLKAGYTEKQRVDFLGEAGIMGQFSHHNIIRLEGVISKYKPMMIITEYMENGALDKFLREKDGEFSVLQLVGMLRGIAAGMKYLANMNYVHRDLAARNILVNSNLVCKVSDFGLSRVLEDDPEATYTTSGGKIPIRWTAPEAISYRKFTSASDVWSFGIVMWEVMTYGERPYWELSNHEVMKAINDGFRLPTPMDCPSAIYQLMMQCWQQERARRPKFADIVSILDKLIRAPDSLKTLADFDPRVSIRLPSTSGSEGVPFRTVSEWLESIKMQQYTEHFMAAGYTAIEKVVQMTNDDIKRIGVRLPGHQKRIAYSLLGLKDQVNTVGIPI

Ephrin type-A receptor 2 [4] = molecular target: T1, Ephrin type-A receptor 2; assay: Binding affinity to histidine-tagged mouse EphA2 Fc fusion protein by SPR assay
Ephrin type-B receptor 4 = molecular target: T2, Ephrin type-B receptor 4 (Homo sapiens, UniProt P54760); assay: Binding affinity to Fc-tagged EphB4 (unknown origin) assessed as reduction in ephrin-B2 binding by SPR assay
T2 sequence (P54760 whole entry): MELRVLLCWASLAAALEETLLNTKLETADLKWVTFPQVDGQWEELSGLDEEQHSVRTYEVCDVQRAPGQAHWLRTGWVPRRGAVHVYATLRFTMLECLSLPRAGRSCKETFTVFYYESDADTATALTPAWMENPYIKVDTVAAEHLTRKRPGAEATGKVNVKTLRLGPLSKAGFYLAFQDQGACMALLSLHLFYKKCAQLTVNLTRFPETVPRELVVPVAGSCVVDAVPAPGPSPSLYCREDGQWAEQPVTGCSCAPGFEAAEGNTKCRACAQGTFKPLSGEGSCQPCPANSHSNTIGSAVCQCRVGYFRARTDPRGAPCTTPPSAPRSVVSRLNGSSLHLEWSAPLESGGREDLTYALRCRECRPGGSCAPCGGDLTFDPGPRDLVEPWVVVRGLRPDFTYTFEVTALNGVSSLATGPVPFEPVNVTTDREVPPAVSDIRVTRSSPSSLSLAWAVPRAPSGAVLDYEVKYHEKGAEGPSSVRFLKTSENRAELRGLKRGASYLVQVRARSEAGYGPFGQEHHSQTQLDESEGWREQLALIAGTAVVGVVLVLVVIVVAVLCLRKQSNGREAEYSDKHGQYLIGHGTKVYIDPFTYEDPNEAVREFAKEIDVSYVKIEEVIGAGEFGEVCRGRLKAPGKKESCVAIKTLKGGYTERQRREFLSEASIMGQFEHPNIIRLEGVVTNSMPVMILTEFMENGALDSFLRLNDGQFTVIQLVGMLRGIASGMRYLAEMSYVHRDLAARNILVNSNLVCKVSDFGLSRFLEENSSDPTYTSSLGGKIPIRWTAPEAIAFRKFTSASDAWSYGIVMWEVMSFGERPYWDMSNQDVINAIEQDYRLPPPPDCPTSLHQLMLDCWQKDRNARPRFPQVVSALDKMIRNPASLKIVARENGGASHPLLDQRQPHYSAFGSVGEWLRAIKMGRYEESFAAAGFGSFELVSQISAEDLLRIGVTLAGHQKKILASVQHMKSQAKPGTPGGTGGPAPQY

Compound: CC(C)C[C@H](NC(=O)[C@H](Cc1c[nH]c2ccccc12)NC(=O)[C@@H](N)CO)C(=O)N[C@@H](C)C(=O)N[C@@H](Cc1ccc(O)cc1)C(=O)N1CCC[C@H]1C(=O)NCC(=O)N[C@@H](C)C(=O)N[C@H](C(=O)N[C@@H](CO)C(=O)N[C@@H](Cc1ccc(O)cc1)C(=O)N[C@@H](CCCN=C(N)N)C(=O)O)C(C)C
pKd (Ephrin type-A receptor 2 [4]): 6.15

Compound: H-TNYLFSPNGPIARAW-OH
pKd (Ephrin type-B receptor 4): 8.70

Continued, values first:

half-life [1]: > 2 h
Compound: CCCC[C@H](NC(=O)[C@@H]1CCCN1C(=O)[C@@H](NC(=O)[C@H](CO)NC(=O)[C@H](CC(=O)O)NC(=O)[C@@H]1CCCN1C(=O)[C@H](Cc1ccc(O)cc1)NC(=O)[C@H](C)NC(=O)[C@H](CO)NC(=O)COc1ccc(F)c(Cl)c1)C(C)C)C(=O)N[C@@H](CCO)C(=O)N[C@@H](CO)C(=O)N[C@@H](CCCCNC(=O)CCCc1cn(CCCCCOC(=O)COCC(=O)O[C@@H](C(=O)O[C@H]2C[C@@]3(O)[C@@H](OC(=O)c4ccccc4)[C@@H]4[C@]5(OC(C)=O)CO[C@@H]5C[C@H](O)[C@@]4(C)C(=O)[C@H](OC(C)=O)C(=C2C)C3(C)C)[C@@H](NC(=O)c2ccccc2)c2ccccc2)nn1)C(=O)O

pIC50 (Ephrin type-A receptor 2 [2]): 4.24
Compound: C[C@H](CCC(=O)O)[C@H]1CC[C@H]2[C@@H]3CC[C@@H]4C[C@H](O)CC[C@]4(C)[C@H]3CC[C@]12C [LITHOCHOLIC ACID]

pKi (Ephrin type-A receptor 2 [3]): < 4.82
Compound: C[C@H](CCC(=O)N[C@H](CC(=O)O)Cc1c[nH]c2ccccc12)[C@H]1CC[C@H]2[C@@H]3CC[C@@H]4CCCC[C@]4(C)[C@H]3CC[C@]12C
